From patent publication US11987566B2, “Nerve damage preventing and nerve protecting compounds, preparation method thereof, pharmaceutical composition thereof, and their use” (GENHEALTH PHARMA CO., LTD., priority 2022, dated 2024)

Assays:
[1] = test system: transient focal Middle Cerebral Artery Occlusion/Reperfusion model (MCAO/R model); experiment: Neurobehavioral evaluation (Bederson classification) after MCAO/R; conditions: Bederson Grade 0-4, SD rat, 50 mg/kg intraperitoneal, vehicle group 2.80
[2] = test system: transient focal Middle Cerebral Artery Occlusion/Reperfusion model (MCAO/R model); experiment: Evaluation of the effect of preventing nerve damage: total infarct volume (TTC staining) in MCAO/R model; format: in vivo, male Sprague Dawley rat; conditions: SD rat, 50 mg/kg intraperitoneal once 10 minutes before MCAO/R; 1 hour ischemia, 24 hours blood reperfusion; vehicle group 40.48
Protocol: Besides the foresaid experimental groups, only pure solvent used was treated as vehicle group, and a sham group, which was not administrated with any compound or solvent or with nylon monofilament to cause obstruction and ischemia, was also included. In this test example, transient focal Middle Cerebral Artery Occlusion/Reperfusion model (MCAO/R model) was adopted to simulate ischemic stroke for evaluating the subsequent nerve damage. Specifically, male Sprague Dawley rat (SD rat) was adopted and anaesthetized with 2% isoflurane, and then the right common carotid artery, external carotid artery and internal carotid artery were distinguished among them from the neck. Next, a nylon monofilament with length of 22 millimeters (mm), size number of 4/0 and capped with polysiloxane was inserted into the external carotid artery and along with the […] to the circle of Willis to induce obstruction and ischemia in the middle cerebral artery. After causing obstruction and ischemia for 1 hour, the nylon monofilament was removed to allow the blood recirculated to the brain, in other words, to undergo blood reperfusion. After blood reperfusion for 24 hours, the rat was sacrificed and the brain thereof was placed into a cooled 0.95% saline. […] Afterward, the sliced brain tissues were stained with a 4% […] solution, and then MacroPATH Digital Imaging System was used to record the images and the obtained images were analyzed by ImageJ 1.52a to count the infarct volume percent, which could represent the degree of nerve damage. The foresaid infarct volume percent was obtained by adding the values acquired by multiplying the proportion of infarct area of each sliced brain tissue with their thickness, and the proportion of infarct area was calculated by the equation: (B−A)/B×100%; wherein, “A” represented the undamaged area in the damaged cerebral hemisphere on the right side, and “B” represented the total area of the undamaged cerebral hemisphere on the left side. […]

Structure (SMILES) | Grade (neurobehavioral evaluation), time point of 0.5-hour after blood reperfusion [1] | Grade (neurobehavioral evaluation), time point of 1.5-hour after blood reperfusion [1] | Grade (neurobehavioral evaluation), time point of 24-hour after blood reperfusion ([1]; 24 hour after blood reperfusion) | Total infarct volume percent (%) [2]
COc1c(C)c(CC=C(C)C)c(OC)c2c1OCO2 [Example 1] | 2.60 | 2.80 | 2.60 | 28.82%
COc1cc(COC(C)=O)c(OC)c2c1OCO2 [Example 3] | 2.80 | 2.60 | – | 17.13%
COc1cc(CC=C(C)C)c(OC)c2c1OCO2 [Example 4] | 2.60 | 2.60 | – | 16.4%
